From publication PMC6410416 (Marine Drugs, 2019)

Target: T1, Ps-Mn-SOD (Paelopatides sp. YL-2018, UniProt A0A411L1L4)
T1 construct: ORF 255 residues, signal peptide deleted; 6xHis tag (pCold II), E. coli pG-KJE8/BL21, Ni-NTA; about 30 kDa subunit, dimer about 60 kDa; C-terminal peptide (from primer) PSKHEEL
T1 sequence (A0A411L1L4 22-255): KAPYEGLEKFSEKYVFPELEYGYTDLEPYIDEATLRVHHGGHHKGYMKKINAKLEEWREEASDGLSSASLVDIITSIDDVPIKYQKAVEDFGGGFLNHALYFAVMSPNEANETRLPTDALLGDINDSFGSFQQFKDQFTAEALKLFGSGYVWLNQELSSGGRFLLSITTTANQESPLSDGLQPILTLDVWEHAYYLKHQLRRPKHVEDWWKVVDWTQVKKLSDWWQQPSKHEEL
Assay: SOD assay kit, inhibition of chromogen production at […] nm
Assay type: biochemical
Details: superoxide generated in situ; turnover only

In the case of `[O]O` [superoxide], the “SOD assay kit, inhibition of chromogen production at 550 nm” value is reported as “SOD activity was determined via spectrophotometric method using the SOD assay kit”.
